In US20250129081A1, “METHANOGEN INHIBITORS” (PASTORAL GREENHOUSE GAS RESEARCH LIMITED, priority 2021, published 2025):

Test system: rumen fluid
Assay: Rumen in vitro (RIV) assay: methane production from incubated rumen fluid
Format: cell-based, cattle
Details: for RIV % methane reduction: 60 mL rumen fluid-buffer mixture
Method: The compounds of the present invention were initially screened for activity using an in vitro fully automated incubation system for the measurement of total gas production and gas composition (methane and hydrogen). The system used is described in detail in the paper by Muetzel et al. (2014; Animal Feed Science and Technology 196, 1-11). The system in this specification is referred to as the rumen in vitro system or RIV. The RIV system provides a relatively simple tool for determining the rate and production of methane and also whether the rate and production of methane is inhibited or reduced by a particular compound or feed. Rumen in vitro assays use rumen fluid from donor animals (typically either sheep or cattle) which is typically combined with a buffer and then incubated in sealed fermentation vessels at 39° C. for either 24 or 48 h. These assays systems have been well-characterised and used by the scientific community over the last two decades (Rymer et al. 2005). The system that has been used here to characterise the effects of inhibitors on methane production and gas production, and the formation of H2, was described by Muetzel et al. (2014). Rumen in vitro assay systems reflect what can occur in the rumen in vivo, but only short-term, due to their short incubation times (typically not exceeding 48 h) which is limited by its buffering capacity and the fact that it is a closed system. Stock solutions of inhibitors were re-suspended in dimethylformamide (DMF) at concentrations 1000-fold higher than the highest used for the assays. Any further dilutions were also prepared using DMF. The total amount of inhibitor solution added to the rumen fluid-buffer mixture (60 mL) was 60 μl. Incubations used 60 ml of medium containing 12 ml of filtered rumen fluid and 48 ml of buffer in serum bottles for 24-48 h, essentially as described by Muetzel et al. (2014). Two fistulated cattle were used as donor animals for rumen fluid and treatments were incubated in duplicate bottles. Sets of duplicate incubation vials that contained ryegrass (with rumen fluid-buffer mixture), and ryegrass with 30 μM bromoethanesulfonate (BES) were also incubated as negative and positive controls, respectively. One experiment consists of 2 replicates of an inhibitor at any one concentration run at the same time, and a run can contain up to 32 bottle, including positive (30 µM BES) and negative (no inhibitor added) controls. Compound 1, for example, was tested using the 60 mL rumen in vitro assay system at 30 μM, 10 μM, 2 μM and 1 μM final concentrations and compared to a positive control with 30 μM BES. […] Compound 3 was very active in the RIV and only the lower concentrations of 2 μM and 1 μM were measured.

Row | Compound | RIV % methane reduction (1 μM compound) | RIV % methane reduction (2 μM compound) | RIV % methane reduction (10 μM compound) | RIV % methane reduction (30 μM compound) | inhibition at 2 µM (Bos taurus, 2 μM, at 18 h, 60 mL rumen in vitro assay system, read-out: inhibition level (methane)) | inhibition at 30 µM (Bos taurus, 30 μM, at 18 h, 60 mL rumen in vitro assay system, read-out: inhibition level (methane)) | activity in the RIV (in words) (only 2 μM and 1 μM measured)
1 | O=c1[nH]c(=O)c2cc3c(=O)n(CCOc4no[n+]([O-])c4S(=O)(=O)c4ccccc4)c(=O)c3cc12 [Compound 1, 3-(phenylsulfonyl)-4-(2-(1,3,5,7-tetraoxo-3,5,6,7-tetrahydropyrrolo[3,4-f]isoindol-2(1H)-yl)ethoxy)-1,2,5-oxadiazole 2-oxide] | 8.9% | 23.3% | 67.8% | 87.1% | ~23.3% | ~87.1% | –
2 | Cn1c(=O)c2cc3c(=O)n(CCOc4no[n+]([O-])c4S(=O)(=O)c4ccccc4)c(=O)c3cc2c1=O [Compound 3] | 49.0% | 80.4% | – | – | – | – | very active
3 | O=c1c2cc3c(=O)n(CO[N+](=O)[O-])c(=O)c3cc2c(=O)n1CCOc1no[n+]([O-])c1S(=O)(=O)c1ccccc1 [Compound 2, 4-(2-(6-((nitrooxy)methyl)-1,3,5,7-tetraoxo-3,5,6,7-tetrahydropyrrolo[3,4-f]isoindol-2(1H)-yl)ethoxy)-3-(phenylsulfonyl)-1,2,5-oxadiazole 2-oxide] | 7.2% | 30.6% | 56.1% | 85.9% | – | – | –
